From patent publication US11325889B2, “Substituted 3-((3-aminophenyl)amino)piperidine-2,6-dione compounds, compositions thereof, and methods of treatment therewith” (Celgene Corporation, priority 2018, dated 2022)
Read-outs that look alike come from different tables or passages of the source.

Target: T1, AR protein in VCaP cells (Homo sapiens, UniProt P10275)
T1 construct: endogenous in cells; host or cells: VCaP cells
T1 sequence (P10275 1-920): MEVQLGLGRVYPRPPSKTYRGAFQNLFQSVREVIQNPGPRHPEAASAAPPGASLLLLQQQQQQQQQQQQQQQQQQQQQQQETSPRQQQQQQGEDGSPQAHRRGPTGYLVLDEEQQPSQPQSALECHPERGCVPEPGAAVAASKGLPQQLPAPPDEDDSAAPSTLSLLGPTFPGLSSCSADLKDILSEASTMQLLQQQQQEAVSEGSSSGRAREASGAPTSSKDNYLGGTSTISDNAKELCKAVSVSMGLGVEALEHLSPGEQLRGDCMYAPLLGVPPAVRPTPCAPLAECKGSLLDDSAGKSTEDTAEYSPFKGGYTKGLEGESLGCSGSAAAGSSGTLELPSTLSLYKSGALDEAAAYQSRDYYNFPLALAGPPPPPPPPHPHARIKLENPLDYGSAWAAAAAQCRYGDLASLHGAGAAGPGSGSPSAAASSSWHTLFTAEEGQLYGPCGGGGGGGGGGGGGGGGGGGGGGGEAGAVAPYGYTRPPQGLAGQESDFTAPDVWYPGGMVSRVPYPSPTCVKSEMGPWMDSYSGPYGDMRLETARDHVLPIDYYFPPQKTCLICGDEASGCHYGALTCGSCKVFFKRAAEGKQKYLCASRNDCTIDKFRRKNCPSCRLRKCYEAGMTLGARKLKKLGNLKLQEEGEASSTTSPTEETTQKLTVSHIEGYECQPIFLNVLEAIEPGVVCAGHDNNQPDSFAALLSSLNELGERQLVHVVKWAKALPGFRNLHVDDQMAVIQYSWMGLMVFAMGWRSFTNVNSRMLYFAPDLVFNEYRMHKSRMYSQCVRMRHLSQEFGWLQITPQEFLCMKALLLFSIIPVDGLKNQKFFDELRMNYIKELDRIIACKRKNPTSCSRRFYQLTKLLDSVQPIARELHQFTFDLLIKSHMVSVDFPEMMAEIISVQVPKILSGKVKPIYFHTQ
Assay: VCAP AR Degradation Assay (AR ELISA, 24 h)
Assay type: cell-based
Conditions: for Y (lowest measured AR level normalized to DMSO control): AR degradation efficiency; for DC50: concentration of compound when AR level = 50% of DMSO control
Protocol: VCAP AR Degradation Assay.
Test compounds were pre-dispensed into a Corning CellBind 96-well clear bottom plate (Cat #3300) using an acoustic dispenser to make a 10-point concentration series at 1:3 dilution for each compound. The final top concentration of each compound was […]. DMSO at a final concentration of 0.1% was used as a control. VCaP cells cultured in DMEM with 8% fetal bovine serum (FBS) were seeded at 50K cells per well in a 200 μL volume into the compound plate and incubated at 37° C. in a CO2 incubator for 24 h. The medium was carefully removed from the cells and the plate was placed on ice. One hundred […] of ice-cold 1× cell lysis buffer from Cell Signaling Technologies (Cat #9803) was added to each well of the cells and the plate was incubated at 4° C. on a shaker for 1 h. Fifteen […] of cell lysate was used for AR ELISA detection using a PathScan Total Sandwich AR ELISA kit (Cell Signaling Technology, Cat #12580). AR levels in compound-treated wells were normalized to that of DMSO control and expressed as percent of control (PoC) (y). A Four Parameter Logistic Model (Sigmoidal Dose-Response Model) was used to determine the compound's DC50, and EC50, using the following equation: y=(A+((B−A)/(1+((C/x)^D)))) • A=YMin (lowest AR level normalized to DMSO control in response to compound • treatment, as determined by curve fit) • B=YMax (maximum AR level as determined by curve fit) • C=EC50 • D=Hill Slope • x=compound concentration • EC50=the concentration of compound when y=(YMax−YMin)/2 • DC50=the concentration of the compound when y=50% of DMSO control (50% AR degradation) • y=AR protein level normalized to DMSO control
The lowest measured AR level normalized to DMSO control in response to compound treatment, termed Y value, was used to characterize the compound-mediated AR degradation efficiency.

Row | SMILES | Y (lowest measured AR level normalized to DMSO control) | DC50 (read-out: DC50) [nM] | DC50 [nM]
1 | CCc1cc(N2C(=S)N(c3ccc(C#N)c(C(F)(F)F)c3)C(=O)C23CCC3)ccc1OCCC1CCN(CC(=O)Nc2cc(Cl)cc(NC3CCC(=O)NC3=O)c2)CC1 (centres unmarked) [Cmpd 28, N-(3-chloro-5-(2,6-dioxopiperidin-3-ylamino)phenyl)-2-(4-(2-(4-(7-(4-cyano-3-(trifluoromethyl)phenyl)-8-oxo-6-thioxo-5,7-diazaspiro[3.4]octan-5-yl)-2-ethylphenoxy)ethyl)piperidin-1-yl)acetamide] | * (0<Y<=25%) | 100 to 500 | 
2 | CCc1cc(N2C(=S)N(c3cnc(C#N)c(C(F)(F)F)c3)C(=O)C2(C)C)ccc1OCCC1CCN(CC(=O)Nc2cc(NC3CCC(=O)NC3=O)ccc2Cl)CC1 (centres unmarked) [Cmpd 14, N-(2-chloro-5-(2,6-dioxopiperidin-3-ylamino)phenyl)-2-(4-(2-(4-(3-(6-cyano-5-(trifluoromethyl)pyridin-3-yl)-5,5-dimethyl-4-oxo-2-thioxoimidazolidin-1-yl)-2-ethylphenoxy)ethyl)piperidin-1-yl)acetamide] | * (0<Y<=25%) | 100 to 500 | 
3 | CCc1cc(N2C(=S)N(c3cnc(C#N)c(C(F)(F)F)c3)C(=O)C2(C)C)ccc1OCCC1CCN([C@H](C)C(=O)Nc2cccc(N[C@@H]3CCC(=O)NC3=O)c2)CC1 [Cmpd 45, (R)-2-(4-(2-(4-(3-(6-cyano-5-(trifluoromethyl)pyridin-3-yl)-5,5-dimethyl-4-oxo-2-thioxoimidazolidin-1-yl)-2-ethylphenoxy)ethyl)piperidin-1-yl)-N-(3-((R)-2,6-dioxopiperidin-3-ylamino)phenyl)propanamide] | * (0<Y<=25%) | < 100 | 
4 | CCc1cc(N2C(=S)N(c3ccc(C#N)c(C(F)(F)F)c3)C(=O)C2(C)C)ccc1OCCC1(F)CCN(CC(=O)Nc2cccc(NC3CCC(=O)NC3=O)c2)CC1 (centres unmarked) [Cmpd 88, 2-(4-(2-(4-(3-(4-cyano-3-(trifluoromethyl)phenyl)-5,5-dimethyl-4-oxo-2-thioxoimidazolidin-1-yl)-2-ethylphenoxy)ethyl)-4-fluoropiperidin-1-yl)-N-(3-(2,6-dioxopiperidin-3-ylamino)phenyl)acetamide] | * (0<Y<=25%) | < 100 | 
5 | CCc1cc(N2C(=S)N(c3cnc(C#N)c(C(F)(F)F)c3)C(=O)C2(C)C)ccc1OCCC1CCN([C@H](C)C(=O)Nc2cc(Cl)cc(NC3CCC(=O)NC3=O)c2)CC1 (stereo partly drawn) [Cmpd 25, (2R)-N-(3-chloro-5-(2,6-dioxopiperidin-3-ylamino)phenyl)-2-(4-(2-(4-(3-(6-cyano-5-(trifluoromethyl)pyridin-3-yl)-5,5-dimethyl-4-oxo-2-thioxoimidazolidin-1-yl)-2-ethylphenoxy)ethyl)piperidin-1-yl)propanamide] | * (0<Y<=25%) | < 100 | 
6 | C[C@@H](C(=O)Nc1cccc(NC2CCC(=O)NC2=O)c1)N1CCC(CCOc2ccc(N3C(=S)N(c4cnc(C#N)c(C(F)(F)F)c4)C(=O)C3(C)C)cc2CCF)CC1 (stereo partly drawn) [Cmpd 73, (2S)-2-(4-(2-(4-(3-(6-cyano-5-(trifluoromethyl)pyridin-3-yl)-5,5-dimethyl-4-oxo-2-thioxoimidazolidin-1-yl)-2-(2-fluoroethyl)phenoxy)ethyl)piperidin-1-yl)-N-(3-(2,6-dioxopiperidin-3-ylamino)phenyl)propanamide] | * (0<Y<=25%) | < 100 | 
7 | C[C@H](C(=O)Nc1cccc(NC2CCC(=O)NC2=O)c1)N1CCC(CCOc2ccc(N3C(=S)N(c4cnc(C#N)c(C(F)(F)F)c4)C(=O)C3(C)C)cc2CCF)CC1 (stereo partly drawn) [Cmpd 72, (2R)-2-(4-(2-(4-(3-(6-cyano-5-(trifluoromethyl)pyridin-3-yl)-5,5-dimethyl-4-oxo-2-thioxoimidazolidin-1-yl)-2-(2-fluoroethyl)phenoxy)ethyl)piperidin-1-yl)-N-(3-(2,6-dioxopiperidin-3-ylamino)phenyl)propanamide] | * (0<Y<=25%) | < 100 | 
8 | CCc1cc(N2C(=S)N(c3cnc(C#N)c(C(F)(F)F)c3)C(=O)C2(C)C)ccc1OCCC1CCN([C@@H](C)C(=O)Nc2cc(Cl)cc(NC3CCC(=O)NC3=O)c2)CC1 (stereo partly drawn) [Cmpd 23, (2S)-N-(3-chloro-5-(2,6-dioxopiperidin-3-ylamino)phenyl)-2-(4-(2-(4-(3-(6-cyano-5-(trifluoromethyl)pyridin-3-yl)-5,5-dimethyl-4-oxo-2-thioxoimidazolidin-1-yl)-2-ethylphenoxy)ethyl)piperidin-1-yl)propanamide] | * (0<Y<=25%) | < 100 | 
9 | CC1(C)C(=O)N(c2cnc(C#N)c(C(F)(F)F)c2)C(=S)N1c1ccc(OCCC2CCN(CC(=O)Nc3cccc(NC4CCC(=O)NC4=O)c3)CC2)c(Cl)c1 (centres unmarked) [Cmpd 5, 2-(4-(2-(2-chloro-4-(3-(6-cyano-5-(trifluoromethyl)pyridin-3-yl)-5,5-dimethyl-4-oxo-2-thioxoimidazolidin-1-yl)phenoxy)ethyl)piperidin-1-yl)-N-(3-(2,6-dioxopiperidin-3-ylamino)phenyl)acetamide] | * (0<Y<=25%) | < 100 | 
10 | CCc1cc(N2C(=S)N(c3cnc(C#N)c(C(F)(F)F)c3)C(=O)C2(C)C)ccc1OCCC1(C)CCN(CC(=O)Nc2cccc(NC3CCC(=O)NC3=O)c2)CC1 (centres unmarked) [Cmpd 61, 2-(4-(2-(4-(3-(6-cyano-5-(trifluoromethyl)pyridin-3-yl)-5,5-dimethyl-4-oxo-2-thioxoimidazolidin-1-yl)-2-ethylphenoxy)ethyl)-4-methylpiperidin-1-yl)-N-(3-(2,6-dioxopiperidin-3-ylamino)phenyl)acetamide] | * (0<Y<=25%) | < 100 | 
11 | CC1(C)C(=O)N(c2ccc(C#N)c(C(F)(F)F)c2)C(=S)N1c1ccc(OCCC2CCN(CC(=O)Nc3cc(Cl)cc(NC4CCC(=O)NC4=O)c3)CC2)c(Cl)c1 (centres unmarked) [Cmpd 8, 2-(4-(2-(2-chloro-4-(3-(4-cyano-3-(trifluoromethyl)phenyl)-5,5-dimethyl-4-oxo-2-thioxoimidazolidin-1-yl)phenoxy)ethyl)piperidin-1-yl)-N-(3-chloro-5-(2,6-dioxopiperidin-3-ylamino)phenyl)acetamide] | * (0<Y<=25%) | 100 to 500 | 
12 | CCc1cc(N2C(=S)N(c3cnc(C#N)c(C(F)(F)F)c3)C(=O)C23CCC3)ccc1OCC[C@H]1C[C@H]2CC[C@@H](C1)N2CC(=O)Nc1cccc(NC2CCC(=O)NC2=O)c1 (single isomer, unassigned) [Cmpd 67] | ** (25%<Y<=35%) |  | < 100
13 | CC(F)(F)c1cc(N2C(=S)N(c3cnc(C#N)c(C(F)(F)F)c3)C(=O)C2(C)C)ccc1OCCC1CCN(CC(=O)Nc2cc(F)cc(NC3CCC(=O)NC3=O)c2)CC1 (centres unmarked) [Cmpd 22, 2-(4-(2-(4-(3-(6-cyano-5-(trifluoromethyl)pyridin-3-yl)-5,5-dimethyl-4-oxo-2-thioxoimidazolidin-1-yl)-2-(1,1-difluoroethyl)phenoxy)ethyl)piperidin-1-yl)-N-(3-(2,6-dioxopiperidin-3-ylamino)-5-fluorophenyl)acetamide] | * (0<Y<=25%) | < 100 | 
